Experimental data published in patent US20180194762A1 (Pharmacyclics LLC, priority 2017, published 2018).
Where two headings read alike, the source gives them in different places.

Experiments:
Assay type in all cases: biochemical
TEC = molecular target: T1, TEC (Homo sapiens, UniProt P42680); test: Inhibition of a panel of kinases (in vitro HotSpot kinase assay, 33P-ATP, 1 μM ATP); details: for IC50: HotSpot kinase assay, 1 μM ATP; for TEC/Btk: ratio of TEC IC50 to Btk IC50 (selectivity)
T1 sequence (P42680 1-631): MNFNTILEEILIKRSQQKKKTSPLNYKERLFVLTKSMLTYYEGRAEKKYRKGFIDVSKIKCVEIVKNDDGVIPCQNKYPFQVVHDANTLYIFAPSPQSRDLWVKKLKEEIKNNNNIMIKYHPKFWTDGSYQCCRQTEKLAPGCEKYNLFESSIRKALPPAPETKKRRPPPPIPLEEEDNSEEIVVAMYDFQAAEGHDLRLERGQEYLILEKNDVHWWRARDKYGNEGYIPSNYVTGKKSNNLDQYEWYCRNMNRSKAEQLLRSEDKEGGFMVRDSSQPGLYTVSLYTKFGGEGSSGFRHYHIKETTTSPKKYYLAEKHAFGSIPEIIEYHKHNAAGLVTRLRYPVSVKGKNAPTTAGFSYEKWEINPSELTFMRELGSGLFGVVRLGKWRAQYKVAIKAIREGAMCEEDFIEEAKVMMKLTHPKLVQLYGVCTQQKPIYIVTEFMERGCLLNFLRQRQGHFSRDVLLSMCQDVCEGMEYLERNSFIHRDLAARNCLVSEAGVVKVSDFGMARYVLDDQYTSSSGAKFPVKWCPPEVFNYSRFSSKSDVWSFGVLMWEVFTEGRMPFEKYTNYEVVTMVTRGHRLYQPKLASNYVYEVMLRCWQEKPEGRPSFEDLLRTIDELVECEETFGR
In short: (§1)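 Degree of kinase inhibition is determined in vitro using isolated enzymes, a matched substrate and radiolabelled ATP (1 μM).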

panel of kinases = molecular target: T2, panel of kinases (Homo sapiens, UniProt P51813); test: Inhibition of a panel of kinases (in vitro HotSpot kinase assay, 33P-ATP, 1 μM ATP), other kinases; details: BMX wild-type, read-out: BMX-WT IC50
T2 sequence (P51813 1-675): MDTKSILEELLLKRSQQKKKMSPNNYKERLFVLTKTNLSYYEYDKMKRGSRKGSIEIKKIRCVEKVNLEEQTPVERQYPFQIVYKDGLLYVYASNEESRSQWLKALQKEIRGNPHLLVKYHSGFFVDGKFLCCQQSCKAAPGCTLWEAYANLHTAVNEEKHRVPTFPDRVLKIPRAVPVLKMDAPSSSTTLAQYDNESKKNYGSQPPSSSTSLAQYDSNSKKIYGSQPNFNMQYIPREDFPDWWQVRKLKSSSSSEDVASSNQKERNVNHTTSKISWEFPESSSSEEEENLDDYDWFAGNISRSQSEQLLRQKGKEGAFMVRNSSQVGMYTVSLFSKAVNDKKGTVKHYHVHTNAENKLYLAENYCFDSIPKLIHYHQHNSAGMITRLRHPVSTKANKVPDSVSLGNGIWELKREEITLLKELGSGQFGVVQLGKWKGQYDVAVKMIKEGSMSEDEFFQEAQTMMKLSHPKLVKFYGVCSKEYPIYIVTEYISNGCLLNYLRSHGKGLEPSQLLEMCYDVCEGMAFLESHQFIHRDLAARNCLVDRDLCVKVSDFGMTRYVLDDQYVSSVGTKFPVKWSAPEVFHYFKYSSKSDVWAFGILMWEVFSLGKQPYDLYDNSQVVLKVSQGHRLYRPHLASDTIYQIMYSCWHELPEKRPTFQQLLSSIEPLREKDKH
In short: as §1

Btk = molecular target: T3, Btk (Homo sapiens, UniProt Q06187); test: Btk in vitro inhibitory activity (one of Method A TR-FRET, Method B electrophoretic mobility shift, Method C radiometric filter binding)
T3 construct: purified from insect cells as a full-length construct containing a N-terminal 6X-His tag; His6 (N); made in house; host or cells: insect cells (Method C)
In short: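 Method A: TR-FRET with 0.5 nM Btk at [ATP]=Km, EDTA-quenched, 665/615 nm ratio; Ki(app) converted to IC50. Method B: 1 nM full-length His6 human BTK, 1 μM FAM peptide, pH 7.5, mobility-shift product/sum ratio, 12-point 4-parameter fit. Method C: radiometric filter binding, 8 nM His-tagged BTK, 0.2 mg/mL poly-Glu-Tyr.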

[1] = wild-type Btk, read-out: Btk-WT IC50
[2] = method is one of A, B or C, not stated which, read-out: IC50 values against Btk

T3 sequence (Q06187 whole entry): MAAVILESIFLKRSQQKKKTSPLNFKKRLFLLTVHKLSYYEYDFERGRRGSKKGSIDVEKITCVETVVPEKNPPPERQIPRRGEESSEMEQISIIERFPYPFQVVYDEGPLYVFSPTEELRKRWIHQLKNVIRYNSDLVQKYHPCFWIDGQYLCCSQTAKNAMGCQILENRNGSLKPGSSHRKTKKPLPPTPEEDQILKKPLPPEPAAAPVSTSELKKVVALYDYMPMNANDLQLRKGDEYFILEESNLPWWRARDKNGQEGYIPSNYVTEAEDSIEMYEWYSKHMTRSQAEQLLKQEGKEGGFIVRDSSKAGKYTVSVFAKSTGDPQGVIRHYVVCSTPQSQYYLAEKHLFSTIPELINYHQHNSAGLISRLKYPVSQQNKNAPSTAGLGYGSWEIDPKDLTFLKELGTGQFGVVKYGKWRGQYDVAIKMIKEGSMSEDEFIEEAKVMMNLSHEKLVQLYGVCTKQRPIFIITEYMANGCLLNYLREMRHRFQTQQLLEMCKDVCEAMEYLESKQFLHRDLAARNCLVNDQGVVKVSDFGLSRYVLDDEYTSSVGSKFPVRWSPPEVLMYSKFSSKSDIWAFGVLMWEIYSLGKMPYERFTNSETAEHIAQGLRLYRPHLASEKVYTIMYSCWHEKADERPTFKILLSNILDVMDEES

| Structure (SMILES) | IC50 (TEC) [nM] | TEC/Btk (TEC) | IC50 (panel of kinases) [nM] | IC50 (Btk; [1]) [nM] | IC50 (Btk; [2]) [nM] |
| --- | --- | --- | --- | --- | --- |
| CC#CC(=O)N1CC[C@@H](Nc2n[nH]c3nccc(-c4ccc(CNC(=O)c5ccc(C(C)(C)C)cc5)c(F)c4)c23)C1 [Compound 7, N-{[4-(3-{[(3R)-1-(but-2-ynoyl)pyrrolidin-3-yl]amino}-1H-pyrazolo[3,4-b]pyridin-4-yl)-2-fluorophenyl]methyl}-4-tert-butylbenzamide] | 296 | 179 | 274 | 1.65 | – |
| C=CC(=O)N1CC[C@@H](Nc2n[nH]c3nccc(-c4ccc(CNC(=O)c5cccc(C(C)(C)C)c5)c(F)c4)c23)C1 [Compound 46, (R)—N-(4-(3-((1-acryloylpyrrolidin-3-yl)amino)-1H-pyrazolo[3,4-b]pyridin-4-yl)-2-fluorobenzyl)-3-(tert-butyl)benzamide] | 182 | 21 | 91 | 8.55 | – |
| CC#CC(=O)N1CC[C@@H](Nc2n[nH]c3nccc(-c4ccc(CNC(=O)c5ccc(C(F)(F)F)cc5)c(F)c4)c23)C1 [Example 110, N-{[4-(3-{[(3R)-1-(but-2-ynoyl)pyrrolidin-3-yl]amino}-1H-pyrazolo[3,4-b]pyridin-4-yl)-2-fluorophenyl]methyl}-4-(trifluoromethyl)benzamide] | 167 | 88 | 66 | 1.89 | < 10 |
| CC(C)(C)c1nc(C(=O)NCc2ccc(-c3ccnc4[nH]nc(NC5CNC5)c34)cc2F)no1 [Example 124, N-[(4-{3-[(azetidin-3-yl)amino]-1H-pyrazolo[3,4-b]pyridin-4-yl}-2-fluorophenyl)methyl]-5-tert-butyl-1,2,4-oxadiazole-3-carboxamide] | 843 | 1018 | 3350 | 0.828 | < 10 |
| C[C@H]1CC[C@@H](Nc2n[nH]c3nccc(-c4ccc(CNC(=O)c5noc(C(C)(C)C)n5)c(F)c4)c23)CN1C(=O)CC#N [Example 140, 5-tert-butyl-N-{[4-(3-{[(3R,6S)-1-(2-cyanoacetyl)-6-methylpiperidin-3-yl]amino}-1H-pyrazolo[3,4-b]pyridin-4-yl)-2-fluorophenyl]methyl}-1,2,4-oxadiazole-3-carboxamide] | 855 | 323 | 1770 | 2.65 | < 10 |
| C=CC(=O)N1CC[C@@H](Nc2n[nH]c3nccc(-c4ccc(CNC(=O)c5noc(C(C)(C)C)n5)cc4)c23)C1 [Example 175, 5-tert-butyl-N-{[4-(3-{[(3R)-1-(prop-2-enoyl)pyrrolidin-3-yl]amino}-1H-pyrazolo[3,4-b]pyridin-4-yl)phenyl]methyl}-1,2,4-oxadiazole-3-carboxamide] | 55 | 289 | 201 | 0.189 | < 10 |
| CC#CC(=O)N1CC(Nc2n[nH]c3nccc(-c4ccc(CNC(=O)c5noc(C(C)(C)C)n5)c(F)c4)c23)C1 [Example 131, N-{[4-(3-{[1-(but-2-ynoyl)azetidin-3-yl]amino}-1H-pyrazolo[3,4-b]pyridin-4-yl)-2-fluorophenyl]methyl}-5-tert-butyl-1,2,4-oxadiazole-3-carboxamide] | 106 | 527 | 152 | 0.201 | < 10 |
| C=CC(=O)N1CC[C@@H](Nc2n[nH]c3nccc(-c4ccc(CNC(=O)c5ccc(C6CC6)cc5)c(F)c4)c23)C1 [Compound 40, 4-cyclopropyl-N-{[2-fluoro-4-(3-{[(3R)-1-(prop-2-enoyl)pyrrolidin-3-yl]amino}-1H-pyrazolo[3,4-b]pyridin-4-yl)phenyl]methyl}benzamide] | 47 | 37 | 54 | 1.27 | – |
| CC(C)(C)c1nc(C(=O)NCc2cc(F)cc(-c3ccnc4[nH]nc(N[C@@H]5CCNC5)c34)c2)no1 [Example 74, 5-tert-butyl-N-{[3-fluoro-5-(3-{[(3R)-pyrrolidin-3-yl]amino}-1H-pyrazolo[3,4-b]pyridin-4-yl)phenyl]methyl}-1,2,4-oxadiazole-3-carboxamide] | > 10000 | – | > 10000 | > 10000 | – |
| CN(C)C/C=C/C(=O)N1CC[C@@H](Nc2n[nH]c3nccc(-c4ccc(CNC(=O)c5noc(C(C)(C)C)n5)c(F)c4)c23)C1 [Example 25, 5-tert-butyl-N-{[4-(3-{[(3R)-1-[(2E)-4-(dimethylamino)but-2-enoyl]pyrrolidin-3-yl]amino}-1H-pyrazolo[3,4-b]pyridin-4-yl)-2-fluorophenyl]methyl}-1,2,4-oxadiazole-3-carboxamide] | 175 | – | 794 | 0.481 | < 10 |
| C=CC(=O)N1CC[C@@H](Nc2n[nH]c3nccc(-c4ccc(CCNC(=O)c5noc(C(C)(C)C)n5)c(F)c4)c23)C1 [Example 87, 5-tert-butyl-N-{2-[2-fluoro-4-(3-{[(3R)-1-(prop-2-enoyl)pyrrolidin-3-yl]amino}-1H-pyrazolo[3,4-b]pyridin-4-yl)phenyl]ethyl}-1,2,4-oxadiazole-3-carboxamide] | 685 | 479 | 276 | 1.43 | < 10 |

Results, then the molecule that gave them:

| IC50 (TEC) [nM] | TEC/Btk (TEC) | IC50 (panel of kinases) [nM] | IC50 (Btk; [1]) [nM] | IC50 (Btk; [2]) [nM] | Structure (SMILES) |
| --- | --- | --- | --- | --- | --- |
| 217 | 14 | 25 | 15 | – | C=CC(=O)N1CC[C@@H](Nc2n[nH]c3nccc(-c4ccc(CNC(=O)c5ccccc5)c(F)c4)c23)C1 [Compound 33, (R)—N-(4-(3-((1-acryloylpyrrolidin-3-yl)amino)-1H-pyrazolo[3,4-b]pyridin-4-yl)-2-fluorobenzyl)benzamide] |
| 47 | – | 35.6 | 0.0594 | – | C=CC(=O)N[C@@H]1CCN(c2n[nH]c3nccc(-c4ccc(CNC(=O)c5cc(C(C)(C)C)on5)c(F)c4)c23)C1 [Example 308, 5-tert-butyl-N-{[2-fluoro-4-(3-{(3R)-3-[(prop-2-enoyl)amino]pyrrolidin-1-yl}-1H-pyrazolo[3,4-b]pyridin-4-yl)phenyl]methyl}-1,2-oxazole-3-carboxamide] |
| 357 | 12 | 113 | 30.6 | – | C=CC(=O)N1CC[C@@H](Nc2n[nH]c3nccc(-c4ccc(CNC(=O)c5nc(C(C)(C)C)n[nH]5)c(F)c4)c23)C1 [Example 82, 3-tert-butyl-N-{[2-fluoro-4-(3-{[(3R)-1-(prop-2-enoyl)pyrrolidin-3-yl]amino}-1H-pyrazolo[3,4-b]pyridin-4-yl)phenyl]methyl}-1H-1,2,4-triazole-5-carboxamide] |
| 4470 | 406 | 3790 | 11 | – | CN(C)C(=O)N1CCC[C@@H](Nc2n[nH]c3nccc(-c4ccc(CNC(=O)c5noc(C(C)(C)C)n5)c(F)c4)c23)C1 [Example 116, (3R)-3-{[4-(4-{[(5-tert-butyl-1,2,4-oxadiazol-3-yl) formamido]methyl}-3-fluorophenyl)-1H-pyrazolo[3,4-b]pyridin-3-yl]amino}-N,N-dimethylpiperidine-1-carboxamide] |
| 5380 | – | 2050 | 11.8 | – | CC(=O)N[C@@H]1CCN(c2n[nH]c3nccc(-c4ccc(CNC(=O)c5nc6c(s5)CCCC6)c(F)c4)c23)C1 [Example 356, N-[(4-{3-[(3R)-3-acetamidopyrrolidin-1-yl]-1H-pyrazolo[3,4-b]pyridin-4-yl}-2-fluorophenyl)methyl]-4,5,6,7-tetrahydro-1,3-benzothiazole-2-carboxamide] |
